Measurements published in PubChem BioAssay AID256 (DTP/NCI, 2004).
Where “and” joins values, the source holds several entries; their conditions need not be identical. Equal values may be shown once. Toxic doses and inconclusive results are not listed.

Tested on: CD2F1 mice, L1210 leukemia ip, survival T/C
Assay: NCI In Vivo Anticancer Drug Screen. Data for tumor model L1210 Leukemia (intraperitoneal) in CD2F1 (CDF1) mice
Settings: higher = longer survival
Procedure, shortened: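 Antitumor effect is scored in animals hosting a serially transplanted tumor. Values compare compound-dosed animals against vehicle-only controls as a simple quotient.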

[1] = endpoint: mean survival time, dose: 100.0 mg/kg/injection, schedule: Q01DX001 (ip), vehicle: Klucel (hydroxypropylcellulose) (HPC)
[2] = endpoint: mean survival time, dose: 100.0 mg/kg/injection, schedule: Q04DX002 (ip), vehicle: saline with Tween-80
[3] = endpoint: mean survival time, dose: 100.0 mg/kg/injection, schedule: Q04DX003 (ip), vehicle: saline with Tween-80
[4] = endpoint: mean survival time, dose: 200.0 mg/kg/injection, schedule: Q04DX003 (ip), vehicle: saline with Tween-80
[5] = endpoint: mean survival time, dose: 400.0 mg/kg/injection, schedule: Q04DX003 (ip), vehicle: saline with Tween-80
[6] = endpoint: mean survival time, dose: 100.0 mg/kg/injection, schedule: Q01DX001 (ip), vehicle: saline with Tween-80
[7] = endpoint: mean survival time, dose: 200.0 mg/kg/injection, schedule: Q01DX001 (ip), vehicle: saline with Tween-80
[8] = endpoint: mean survival time, dose: 400.0 mg/kg/injection, schedule: Q01DX001 (ip), vehicle: saline with Tween-80
[9] = endpoint: mean survival time, dose: 200.0 mg/kg/injection, schedule: Q04DX002 (ip), vehicle: saline with Tween-80
[10] = endpoint: mean survival time, dose: 400.0 mg/kg/injection, schedule: Q04DX002 (ip), vehicle: saline with Tween-80
[11] = endpoint: mean survival time, dose: 100.0 mg/kg/injection, schedule: Q01DX009 (ip), vehicle: saline with Tween-80
[12] = endpoint: mean survival time, dose: 200.0 mg/kg/injection, schedule: Q01DX009 (ip), vehicle: saline with Tween-80
[13] = endpoint: mean survival time, dose: 400.0 mg/kg/injection, schedule: Q01DX009 (ip), vehicle: saline with Tween-80

## CN1CCN(C(=O)NCCCl)CC1
endpoint: mean survival time, dose: 5.0 mg/kg/injection, schedule: Q01DX009 (ip), vehicle: saline
  T/C: 107 % of control
endpoint: mean survival time, dose: 5.0 mg/kg/injection, schedule: Q04DX003 (ip), vehicle: saline
  T/C: 93 % of control
endpoint: mean survival time, dose: 10.0 mg/kg/injection, schedule: Q01DX009 (ip), vehicle: saline
  T/C: 94 % of control
endpoint: mean survival time, dose: 10.0 mg/kg/injection, schedule: Q04DX003 (ip), vehicle: saline
  T/C: 92 % of control
endpoint: mean survival time, dose: 20.0 mg/kg/injection, schedule: Q04DX003 (ip), vehicle: saline
  T/C: 92 % of control

## O=C1c2ccccc2C(=O)N1OC1CCCCO1 (centres undefined)
endpoint: mean survival time, dose: 100.0 mg/kg/injection, schedule: Q04DX003 (ip), vehicle: Klucel (hydroxypropylcellulose) (HPC)
  T/C: 92 % of control
endpoint: mean survival time, dose: 200.0 mg/kg/injection, schedule: Q04DX003 (ip), vehicle: Klucel (hydroxypropylcellulose) (HPC)
  T/C: 102 % of control
endpoint: mean survival time, dose: 400.0 mg/kg/injection, schedule: Q04DX003 (ip), vehicle: Klucel (hydroxypropylcellulose) (HPC)
  T/C: 94 % of control

## OCCCC(Sc1ccccc1)c1ccccc1 (centres undefined)
endpoint: mean survival time, dose: 75.0 mg/kg/injection, schedule: Q04DX003 (ip), vehicle: saline
  T/C: 91 % of control
endpoint: mean survival time, dose: 150.0 mg/kg/injection, schedule: Q04DX003 (ip), vehicle: saline
  T/C: 101 % of control
endpoint: mean survival time, dose: 300.0 mg/kg/injection, schedule: Q04DX003 (ip), vehicle: saline
  T/C: 91 % of control

## NC(CSSc1ccccc1)=NC1CCCCC1
endpoint: mean survival time, dose: 12.5 mg/kg/injection, schedule: Q01DX001 (ip), vehicle: Klucel (hydroxypropylcellulose) (HPC)
  T/C: 97 % of control
endpoint: mean survival time, dose: 25.0 mg/kg/injection, schedule: Q01DX001 (ip), vehicle: Klucel (hydroxypropylcellulose) (HPC)
  T/C: 92 % of control
endpoint: mean survival time, dose: 50.0 mg/kg/injection, schedule: Q01DX001 (ip), vehicle: Klucel (hydroxypropylcellulose) (HPC)
  T/C: 97 % of control

## COc1ccc2oc3c(ccc[n+]3C)c(=O)c2c1
endpoint: median survival time, dose: 60.0 mg/kg/injection, schedule: Q01DX005 (ip), vehicle: saline with Tween-80
  T/C: 104 % of control
endpoint: median survival time, dose: 120.0 mg/kg/injection, schedule: Q01DX005 (ip), vehicle: saline with Tween-80
  T/C: 108 % of control
endpoint: median survival time, dose: 240.0 mg/kg/injection, schedule: Q01DX005 (ip), vehicle: saline with Tween-80
  T/C: 122 % of control

## CCCCCCCCCCCCCCCOc1ccc2ccccc2c1
[1]
  T/C: 102 % of control
endpoint: mean survival time, dose: 200.0 mg/kg/injection, schedule: Q01DX001 (ip), vehicle: Klucel (hydroxypropylcellulose) (HPC)
  T/C: 94 % of control
endpoint: mean survival time, dose: 400.0 mg/kg/injection, schedule: Q01DX001 (ip), vehicle: Klucel (hydroxypropylcellulose) (HPC)
  T/C: 90 % of control

## Nc1ncnc2nc(SCc3ccccc3)[nH]c12
endpoint: mean survival time, dose: 12.5 mg/kg/injection, schedule: Q01DX009 (ip), vehicle: Klucel (hydroxypropylcellulose) (HPC)
  T/C: 112 % of control
endpoint: mean survival time, dose: 25.0 mg/kg/injection, schedule: Q01DX009 (ip), vehicle: Klucel (hydroxypropylcellulose) (HPC)
  T/C: 104 % of control
endpoint: mean survival time, dose: 50.0 mg/kg/injection, schedule: Q01DX009 (ip), vehicle: Klucel (hydroxypropylcellulose) (HPC)
  T/C: 100 % of control
[1]
  T/C: 90 % of control

## COc1cccc2c1C(=O)c1c(O)c3c(c(O)c1C2=O)C[C@@](O)(C(C)=O)C[C@@H]3OC1CC(N(Cc2ccccc2)Cc2ccccc2)C(O)C(C)O1 (some centres undefined)
endpoint: mean survival time, dose: 1.5 mg/kg/injection, schedule: Q01DX009 (ip), vehicle: saline with Tween-80
  T/C: 105 % of control
endpoint: mean survival time, dose: 3.0 mg/kg/injection, schedule: Q01DX009 (ip), vehicle: saline with Tween-80
  T/C: 111 % of control
endpoint: mean survival time, dose: 6.0 mg/kg/injection, schedule: Q01DX009 (ip), vehicle: saline with Tween-80
  T/C: 117 % of control
endpoint: mean survival time, dose: 12.0 mg/kg/injection, schedule: Q01DX009 (ip), vehicle: saline with Tween-80
  T/C: 150 % of control
endpoint: mean survival time, dose: 24.0 mg/kg/injection, schedule: Q01DX009 (ip), vehicle: saline with Tween-80
  T/C: 115 % of control
endpoint: mean survival time, dose: 48.0 mg/kg/injection, schedule: Q01DX009 (ip), vehicle: saline with Tween-80
  T/C: 94 % of control

## N#CCCN=C1C=CC(=C(c2ccc(NCCC#N)cc2)c2ccc(Cl)cc2Cl)C=C1
[2]
  T/C: 117 % of control

## OCC1CC=CCC1 (centres undefined)
[3]
  T/C: 97 % of control
[4]
  T/C: 90 % of control
[5]
  T/C: 95 % of control

## ClC1C2CCC(C2)C1(Cl)Cl (centres undefined)
endpoint: mean survival time, dose: 0.3 mg/kg/injection, schedule: Q01DX001 (ip), vehicle: saline with Tween-80
  T/C: 100 % of control
endpoint: mean survival time, dose: 0.6 mg/kg/injection, schedule: Q01DX001 (ip), vehicle: saline with Tween-80
  T/C: 103 % of control
endpoint: mean survival time, dose: 1.2 mg/kg/injection, schedule: Q01DX001 (ip), vehicle: saline with Tween-80
  T/C: 102 % of control

## [Cl][Fe]([Cl])([Cl])[Cl].c1ccc(-c2cc(-c3ccccc3)[o+]c(-c3ccccc3)c2)cc1
endpoint: mean survival time, dose: 25.0 mg/kg/injection, schedule: Q04DX003 (ip), vehicle: saline with Tween-80
  T/C: 87 % of control
endpoint: mean survival time, dose: 50.0 mg/kg/injection, schedule: Q04DX003 (ip), vehicle: saline with Tween-80
  T/C: 87 % of control
[3]
  T/C: 86 % of control and 91 % of control

## COc1cc2c(c(OC)c1OC)-c1ccc(SC)c(=O)cc1[C@@H](NC1OC(CO)C(O)C(O)C1O)CC2 (some centres undefined)
endpoint: mean survival time, dose: 3.13 mg/kg/injection, schedule: Q01DX009 (ip), vehicle: saline
  T/C: 117 % of control

## CCOC(=O)C(Cl)C(=O)OCC
[6]
  T/C: 108 % of control and 109 % of control
[7]
  T/C: 104 % of control and 105 % of control
[8]
  T/C: 120 % of control and 111 % of control

## Oc1ccc(NC(=S)Nc2ccccc2)cc1
endpoint: mean survival time, dose: 100.0 mg/kg/injection, schedule: Q01DX001 (ip), vehicle: saline
  T/C: 98 % of control
endpoint: mean survival time, dose: 200.0 mg/kg/injection, schedule: Q01DX001 (ip), vehicle: saline
  T/C: 98 % of control
endpoint: mean survival time, dose: 400.0 mg/kg/injection, schedule: Q01DX001 (ip), vehicle: saline
  T/C: 96 % of control

## CCC(CCc1ccc(OC)c(OC)c1)C(=O)O (centres undefined)
[2]
  T/C: 109 % of control
[9]
  T/C: 102 % of control
[10]
  T/C: 98 % of control

## Cc1ccc(S(=O)(=O)/C=C(\I)c2ccccc2)cc1
[11]
  T/C: 91 % of control
[3]
  T/C: 96 % of control
[12]
  T/C: 94 % of control
[4]
  T/C: 96 % of control
[13]
  T/C: 94 % of control
[5]
  T/C: 93 % of control

## N#Cc1c(F)c(F)c(C#N)c(F)c1F
endpoint: mean survival time, dose: 5.0 mg/kg/injection, schedule: Q04DX003 (ip), vehicle: Klucel (hydroxypropylcellulose) (HPC)
  T/C: 104 % of control
endpoint: mean survival time, dose: 10.0 mg/kg/injection, schedule: Q04DX003 (ip), vehicle: Klucel (hydroxypropylcellulose) (HPC)
  T/C: 106 % of control
endpoint: mean survival time, dose: 20.0 mg/kg/injection, schedule: Q04DX003 (ip), vehicle: Klucel (hydroxypropylcellulose) (HPC)
  T/C: 102 % of control
endpoint: mean survival time, dose: 40.0 mg/kg/injection, schedule: Q04DX003 (ip), vehicle: Klucel (hydroxypropylcellulose) (HPC)
  T/C: 104 % of control

## [Cl][Pt+2][Cl].[NH-]C1CCC1[NH-] (centres undefined)
endpoint: median survival time, dose: 2.5 mg/kg/injection, schedule: Q04DX003 (ip), vehicle: Klucel (hydroxypropylcellulose) (HPC)
  T/C: 111 % of control
endpoint: median survival time, dose: 10.0 mg/kg/injection, schedule: Q04DX003 (ip), vehicle: Klucel (hydroxypropylcellulose) (HPC)
  T/C: 156 % of control and 158 % of control
endpoint: median survival time, dose: 20.0 mg/kg/injection, schedule: Q04DX003 (ip), vehicle: Klucel (hydroxypropylcellulose) (HPC)
  T/C: 177 % of control

## C=CC/C(C)=C/C=C/C(C)C(=O)O (centres undefined)
[11]
  T/C: 100 % of control
[3]
  T/C: 98 % of control
[12]
  T/C: 94 % of control
[4]
  T/C: 93 % of control
[13]
  T/C: 104 % of control
[5]
  T/C: 95 % of control

## CC(=O)CCC(=O)C1SCCS1
[2]
  T/C: 101 % of control
[9]
  T/C: 97 % of control
[10]
  T/C: 101 % of control

## O=C(O)c1c(Sc2ccccc2)cccc1Sc1ccccc1
endpoint: mean survival time, dose: 25.0 mg/kg/injection, schedule: Q04DX002 (ip), vehicle: saline with Tween-80
  T/C: 93 % of control
endpoint: mean survival time, dose: 50.0 mg/kg/injection, schedule: Q04DX002 (ip), vehicle: saline with Tween-80
  T/C: 93 % of control
[6]
  T/C: 89 % of control
[2]
  T/C: 93 % of control
[7]
  T/C: 93 % of control
[9]
  T/C: 95 % of control
[8]
  T/C: 90 % of control
[10]
  T/C: 87 % of control

## S=C(S)NCCc1ccccn1
[11]
  T/C: 102 % of control
[12]
  T/C: 94 % of control
[13]
  T/C: 103 % of control

## O=[N+]([O-])c1ccc(N/N=C(\CI)c2ccccc2)c([N+](=O)[O-])c1
endpoint: mean survival time, dose: 100.0 mg/kg/injection, schedule: Q04DX003 (ip), vehicle: saline sonified
  T/C: 97 % of control
endpoint: mean survival time, dose: 200.0 mg/kg/injection, schedule: Q04DX003 (ip), vehicle: saline sonified
  T/C: 109 % of control
endpoint: mean survival time, dose: 400.0 mg/kg/injection, schedule: Q04DX003 (ip), vehicle: saline sonified
  T/C: 108 % of control

## CSc1nc(N)c(C#N)cc1C#N
[6]
  T/C: 100 % of control
[7]
  T/C: 89 % of control
[8]
  T/C: 89 % of control
